Assay results as given in patent US20240381872A1, “SUBSTITUTED 2,3-DIHYDRO[1,3]THIAZOLO[4,5-B]PYRIDINES, SALTS THEREOF AND THEIR USE AS HERBICIDALLY ACTIVE SUBSTANCES” (BAYER AKTIENGESELLSCHAFT, priority 2021, published 2024).

How the values were obtained:
Assay type in all cases: in vivo
Zea mays (ZEAMX) = assay: Pre-emergence effects on crop plants, section D (Table D1); settings: visual grading after ca. 3 weeks
In short: (§1)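 Read-out: visual percent injury versus untreated controls at ca. 3 weeks (0% as control, 100% dead). Treatment: aqueous WP/EC suspension or emulsion with 0.5% additive, 600 l/ha, on soil covering seeds in sandy loam, at 320 g/ha or below, under optimum greenhouse conditions.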

[1] = system: Polygonum convolvulus (POLCO); assay: Herbicidal pre-emergence action, section C (Table C7); settings: visual grading after ca. 3 weeks
Excerpt: (§2) Seeds of mono- and dicotyledonous weed plants and crop plants were sown, in plastic or organic planting pots, in sandy loam and covered with soil. The compounds according to the invention, formulated in the form of wettable powders (WP) or as emulsifiable concentrates (EC), were applied to the surface of the covering soil as aqueous suspension or emulsion, with the addition of 0.5% of an additive, at an application rate of 600 l of water/ha (converted). Following treatment, the pots were placed in a greenhouse and kept under optimum growth conditions for the test plants. The visual grading of the damage to the test plants was carried out after ca. 3 weeks in comparison to untreated controls (herbicidal effect in percent (%): 100% effect=plants have died off, 0% effect=as control plants).

[2] = system: Abutilon theophrasti (ABUTH); assay: Herbicidal post-emergence action, section B (Table B1); settings: rated visually after about 3 weeks; for pest or weed control at 1280 g/ha: Abutilon theophrasti, 504 h, application rate 1280 g/ha, read-out: post-emergence activity against ABUTH in %; for post-emergence activity against ABUTH in %: application rate 320 g/ha
In short: (§3)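 Post-emergence greenhouse test. One-leaf stage; WP or EC plus 0.5% additive; 600 liters per hectare water volume; visual % rating at ~3 weeks relative to untreated plants.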

[3] = system: Echinochloa crus-galli (ECHCG); assay: Herbicidal pre-emergence action, section C (Table C3); settings: visual grading after ca. 3 weeks vs untreated controls
In short: (§4)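 Compounds applied as aqueous WP or EC preparations (0.5% additive, 600 l water/ha) onto soil covering freshly sown seeds in sandy loam. Herbicidal effect is visually estimated % damage after about 3 weeks, where 100% means plants died off and 0% matches controls.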

[4] = system: Digitaria sanguinalis (DIGSA); assay: Herbicidal post-emergence action, section B (Table B12); settings: visual rating about 3 weeks after treatment vs untreated controls; for pest or weed control at 1280 g/ha: Digitaria sanguinalis, post-emergence, 504 h, read-out: post-emergence activity against DIGSA in %
In short: as §3

[5] = system: Digitaria sanguinalis (DIGSA); assay: Herbicidal pre-emergence action, section C (Table C12); settings: visual grading after ca. 3 weeks; for pest or weed control at 320 g/ha / pest or weed control at 80 g/ha: Digitaria sanguinalis, pre-emergence, 504 h, read-out: pre-emergence activity against DIGSA in %
In short: as §4

[6] = system: Digitaria sanguinalis (DIGSA); assay: Herbicidal pre-emergence action, section A (Table A12)
In short: (§5)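 Seeds sown in sandy loam and covered with soil; compounds formulated as WP or EC were applied to the soil surface as aqueous suspension or emulsion with 0.5% additive at 600 l water/ha. Pots kept in greenhouse under optimum conditions; damage scored visually after ca. 3 weeks versus untreated controls (0–100%).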

[7] = system: Matricaria inodora (MATIN); assay: Herbicidal pre-emergence action, section A (Table A6); settings: visual grading after ca. 3 weeks vs untreated controls
In short: as §5

Poa annua (POAAN) = assay: Herbicidal post-emergence action, section B (Table B7); settings: visual rating about 3 weeks after treatment vs untreated controls
In short: as §3

Veronica persica (VERPE) = assay: Herbicidal pre-emergence action, section C (Table C10); settings: Veronica persica, pre-emergence, 504 h, visual grading after ca. 3 weeks, read-out: pre-emergence activity against VERPE in %; for pest or weed control at 320 g/ha: application rate 320 g/ha; for pest or weed control at 80 g/ha: application rate 80 g/ha
Excerpt: as §2

[8] = system: Amaranthus retroflexus (AMARE); assay: Herbicidal pre-emergence action, section C (Table C11); settings: visual grading after ca. 3 weeks; for pest or weed control at 80 g/ha: Amaranthus retroflexus, pre-emergence, 504 h, read-out: pre-emergence activity against AMARE in %
In short: as §4

Glycine max (GLXMA) = assay: Pre-emergence effects on crop plants, section D (Table D4); settings: application rate 320 g/ha; visual grading after ca. 3 weeks
In short: as §1

Setaria viridis (SETVI) = assay: Herbicidal post-emergence action, section B (Table B8); settings: application rate 1280 g/ha, visual rating about 3 weeks after treatment vs untreated controls; for pest or weed control at 1280 g/ha: Setaria viridis, post-emergence, 504 h, read-out: post-emergence activity against SETVI in %
In short: as §3

[9] = system: Matricaria inodora (MATIN); assay: Herbicidal pre-emergence action, section C (Table C6); settings: visual grading after ca. 3 weeks
Excerpt: as §2

[10] = Fallopia convolvulus, pre-emergence, 504 h, application rate 320 g/ha, read-out: pre-emergence activity against POLCO in %
[11] = Echinochloa crus-galli, pre-emergence, 504 h, application rate 320 g/ha, read-out: pre-emergence activity against ECHCG in %
[12] = Digitaria sanguinalis, 504 h, application rate 1280 g/ha, read-out: pre-emergence activity against DIGSA in %
[13] = Tripleurospermum inodorum, pre-emergence, 504 h, application rate 1280 g/ha, read-out: pre-emergence activity against MATIN in %
[14] = Poa annua, post-emergence, 504 h, application rate 320 g/ha, read-out: post-emergence activity against POAAN in %

| SMILES | pre-emergence activity against ZEAMX in % (crop plant damage) (Zea mays (ZEAMX); application rate 80 g/ha) | pest or weed control at 320 g/ha [1, 10] [%] | pest or weed control at 320 g/ha [3, 11] [%] | pest or weed control at 1280 g/ha ([4]; application rate 1280 g/ha) [%] | pest or weed control at 320 g/ha ([5]; application rate 320 g/ha) [%] | pest or weed control at 1280 g/ha [6, 12] [%] | pest or weed control at 1280 g/ha [7, 13] [%] | pest or weed control at 80 g/ha ([8]; application rate 80 g/ha) [%] | pre-emergence activity against ZEAMX in % (crop plant damage) (Zea mays (ZEAMX); application rate 320 g/ha) [%] | pre-emergence activity against GLXMA in % (crop plant damage) (Glycine max (GLXMA)) [%] | pest or weed control at 1280 g/ha (Setaria viridis (SETVI)) [%] | pest or weed control at 320 g/ha (Poa annua (POAAN); [14]) [%] | pre-emergence activity against ECHCG in % ([3]; application rate 320 g/ha) [%] | pre-emergence activity against DIGSA in % ([5]; application rate 320 g/ha) [%] | pre-emergence activity against DIGSA in % ([6]; application rate 320 g/ha) [%] | post-emergence activity against POAAN in % (Poa annua (POAAN); application rate 320 g/ha) [%] | post-emergence activity against SETVI in % (Setaria viridis (SETVI)) [%] | post-emergence activity against DIGSA in % ([4]; application rate 1280 g/ha) [%] | further results |
| --- | --- | --- | --- | --- | --- | --- | --- | --- | --- | --- | --- | --- | --- | --- | --- | --- | --- | --- | --- |
| CC1(C(=O)N2CSc3cc(Br)c(-c4ccccc4Cl)nc32)CC(Cl)=NO1 (stereo not drawn) [Example I-141, [6-bromo-5-(2-chlorophenyl)[1,3]thiazolo[4,5-b]pyridin-3(2H)-yl](3-chloro-5-methyl-4,5-dihydro-1,2-oxazol-5-yl)methanone] | 0% | 80 | 100 | 90 | 90 | 100 | 90 | 100 |  |  |  |  |  |  |  |  |  |  | pest or weed control at 1280 g/ha [2]: 90%; pest or weed control at 1280 g/ha (Poa annua (POAAN); Poa annua, post-emergence, 504 h, application rate 1280 g/ha, read-out: post-emergence activity against POAAN in %): 90%; pest or weed control at 320 g/ha (Veronica persica (VERPE)): 90% |
| CC(=O)N1CSc2cc(Br)c(-c3ccccc3Cl)nc21 [Example I-055, 1-[6-bromo-5-(2-chlorophenyl)[1,3]thiazolo[4,5-b]pyridin-3(2H)-yl]ethanone] |  | 80 | 100 | 90 |  |  | 90 | 90 | 0 | 20 | 90 |  |  |  |  |  |  |  | pest or weed control at 80 g/ha ([5]; application rate 80 g/ha): 90%; pest or weed control at 320 g/ha ([6]; Digitaria sanguinalis, 504 h, application rate 320 g/ha, read-out: pre-emergence activity against DIGSA in %): 100%; pest or weed control at 320 g/ha (Veronica persica (VERPE)): 80% |
| CCS(=O)(=O)N1C[S+]([O-])c2cc(C)c(-c3ccccc3C)nc21 (stereo not drawn) [Example I-074] | 0% | 90 |  | 90 | 100 | 100 |  | 90 |  | 0 | 90 | 90 |  |  |  |  |  |  | pest or weed control at 80 g/ha ([3]; Echinochloa crus-galli, pre-emergence, 504 h, application rate 80 g/ha, read-out: pre-emergence activity against ECHCG in %): 100%; pest or weed control at 320 g/ha ([7]; Tripleurospermum inodorum, pre-emergence, 504 h, application rate 320 g/ha, read-out: pre-emergence activity against MATIN in %): 90%; pest or weed control at 80 g/ha (Veronica persica (VERPE)): 80% |
| Cc1cc2c(nc1-c1cccc(C)c1F)NCS2 [Example I-113] |  |  |  |  |  |  |  |  | 0 | 10 |  |  | 100 | 100 | 100 | 90 |  |  | pre-emergence activity against POLCO in % ([1]; application rate 80 g/ha): 90%; post-emergence activity against DIGSA in % ([4]; application rate 320 g/ha): 90% |
| COC(=O)CCC(=O)N1CSc2cc(Cl)c(-c3ccccc3F)nc21 [Example I-003] |  |  |  |  |  |  |  |  |  |  |  |  | 80 | 90 |  | 100 | 90 | 100 | pre-emergence activity against MATIN in % ([9]; application rate 320 g/ha): 80%; pre-emergence activity against DIGSA in % ([6]; application rate 1280 g/ha): 100%; pre-emergence activity against MATIN in % ([7]; application rate 320 g/ha): 90% |
| BN1CSc2cc(Br)c(-c3ccccc3C)nc21 [Example I-011] |  |  |  |  |  |  |  |  | 10 | 0 |  |  | 100 | 100 |  |  | 90 |  | post-emergence activity against POAAN in % (Poa annua (POAAN); application rate 1280 g/ha): 90% |
| Cc1cc2c(nc1-c1ccccc1F)N(C(=O)C13CCCC1C(Cl)=NO3)CS2 (stereo not drawn) [Example I-104] | 0) % |  |  |  |  |  |  |  |  |  |  |  |  |  | 100 | 90 | 90 | 90 | pre-emergence activity against MATIN in % ([9]; application rate 800 g/ha (so in the source)): 90%; pre-emergence activity against POLCO in % ([1]; application rate 80 g/ha): 80%; post-emergence activity against ABUTH in % [2]: 90%; pre-emergence activity against ECHCG in % ([3]; application rate 80 g/ha): 100%; pre-emergence activity against DIGSA in % ([5]; application rate 80 g/ha): 100%; pre-emergence activity against MATIN in % ([7]; application rate 320 g/ha): 100%; pre-emergence activity against AMARE in % ([8]; application rate 80 g/ha): 80% |
| Clc1ccccc1-c1nc2c(cc1Br)SCN2 [Example I-041, 6-bromo-5-(2-chlorophenyl)-2,3-dihydro[1,3]thiazolo[4,5-b]pyridine] | 0% |  | 100 |  | 100 | 100 | 90 | 90 |  |  | 90 | 90 |  |  |  |  |  |  | pest or weed control at 80 g/ha ([1]; Fallopia convolvulus, pre-emergence, 504 h, application rate 80 g/ha, read-out: pre-emergence activity against POLCO in %): 80%; pest or weed control at 1280 g/ha [2]: 90% |
| CCc1ccccc1-c1nc2c(cc1C)[S+]([O-])CN2 (stereo not drawn) [Example I-047] |  | 80 |  |  |  | 100 | 90 | 90 | 20 | 20 |  | 90 |  |  |  |  |  |  | pest or weed control at 80 g/ha ([5]; application rate 80 g/ha): 90%; pest or weed control at 80 g/ha (Veronica persica (VERPE)): 80% |
| Cc1cc2c(nc1-c1ccccc1)N(C(=O)C1(C)CC(Cl)=NO1)CS2 (stereo not drawn) [Example I-088] |  |  |  |  |  |  |  |  | 0 |  |  |  | 100 | 100 | 100 | 90 | 90 | 100 | pre-emergence activity against MATIN in % ([9]; application rate 320 g/ha): 90%; pre-emergence activity against POLCO in % ([1]; application rate 320 g/ha): 90%; post-emergence activity against ABUTH in % [2]: 90%; pre-emergence activity against MATIN in % ([7]; application rate 1280 g/ha): 90%; pre-emergence activity against AMARE in % ([8]; application rate 320 g/ha): 90% |
